Assay results taken from BigSolDB 2.1.

C[C@@H]1CC[C@@]2(OC1)O[C@H]1C[C@H]3[C@@H]4CC=C5C[C@@H](O)CC[C@]5(C)[C@H]4CC[C@]3(C)[C@H]1[C@@H]2C
solubility (mole fraction) (in acetone, 295.15 K): 0.000904 | solubility (mole fraction) (in acetone, 302.15 K): 0.00115 | solubility (mole fraction) (in acetone, 304.65 K): 0.00127 | solubility (mole fraction) (in acetone, 308.15 K): 0.0014 | solubility (mole fraction) (in acetone, 310.15 K): 0.00149 | solubility (mole fraction) (in acetone, 312.15 K): 0.00159 | solubility (mole fraction) (in acetone, 313.65 K): 0.0017 | solubility (mole fraction) (in acetone, 315.65 K): 0.00184 | solubility (mole fraction) (in acetone, 317.15 K): 0.00194 | solubility (mole fraction) (in acetone, 319.15 K): 0.00204 | solubility (mole fraction) (in acetone, 321.15 K): 0.00217 | solubility (mole fraction) (in acetone, 322.65 K): 0.0023 | solubility (mole fraction) (in acetone, 324.65 K): 0.00243 | solubility (mole fraction) (in acetone, 326.65 K): 0.00256 | solubility (mole fraction) (in acetone, 327.65 K): 0.00267 | solubility (mole fraction) (in acetone, 329.15 K): 0.00279 | solubility (mole fraction) (in acetone, 330.15 K): 0.00292 | solubility (mole fraction) (in acetone, 332.15 K): 0.00303 | solubility (mole fraction) (in ethanol, 299.15 K): 0.00133 | solubility (mole fraction) (in ethanol, 303.15 K): 0.00144 | solubility (mole fraction) (in ethanol, 306.15 K): 0.00153 | solubility (mole fraction) (in ethanol, 308.65 K): 0.00161 | solubility (mole fraction) (in ethanol, 311.65 K): 0.00169 | solubility (mole fraction) (in ethanol, 313.65 K): 0.00175 | solubility (mole fraction) (in ethanol, 315.65 K): 0.00184 | solubility (mole fraction) (in ethanol, 317.15 K): 0.00193 | solubility (mole fraction) (in ethanol, 319.15 K): 0.002 | solubility (mole fraction) (in ethanol, 320.65 K): 0.00208 | solubility (mole fraction) (in ethanol, 322.65 K): 0.00215 | solubility (mole fraction) (in ethanol, 324.15 K): 0.00224 | solubility (mole fraction) (in ethanol, 326.15 K): 0.00233 | solubility (mole fraction) (in ethanol, 327.65 K): 0.00241 | solubility (mole fraction) (in ethanol, 328.65 K): 0.00249 | solubility (mole fraction) (in ethanol, 329.65 K): 0.00258 | solubility (mole fraction) (in ethanol, 330.65 K): 0.00268 | solubility (mole fraction) (in ethanol, 331.65 K): 0.00276 | solubility (mole fraction) (in ethanol, 332.65 K): 0.00284 | solubility (mole fraction) (in ethyl acetate, 300.65 K): 0.0024 | solubility (mole fraction) (in ethyl acetate, 302.15 K): 0.00258 | solubility (mole fraction) (in ethyl acetate, 303.15 K): 0.00276 | solubility (mole fraction) (in ethyl acetate, 303.65 K): 0.00294 | solubility (mole fraction) (in ethyl acetate, 305.15 K): 0.00317 | solubility (mole fraction) (in ethyl acetate, 307.15 K): 0.00338 | solubility (mole fraction) (in ethyl acetate, 308.65 K): 0.0036 | solubility (mole fraction) (in ethyl acetate, 310.65 K): 0.00383 | solubility (mole fraction) (in ethyl acetate, 311.65 K): 0.00402 | solubility (mole fraction) (in ethyl acetate, 313.65 K): 0.00423 | solubility (mole fraction) (in ethyl acetate, 315.65 K): 0.00447 | solubility (mole fraction) (in ethyl acetate, 316.65 K): 0.00466 | solubility (mole fraction) (in ethyl acetate, 318.15 K): 0.00492 | solubility (mole fraction) (in ethyl acetate, 320.15 K): 0.00523 | solubility (mole fraction) (in ethyl acetate, 321.65 K): 0.00545 | solubility (mole fraction) (in ethyl acetate, 323.15 K): 0.00577 | solubility (mole fraction) (in ethyl acetate, 324.65 K): 0.00602 | solubility (mole fraction) (in ethyl acetate, 326.65 K): 0.00628 | solubility (mole fraction) (in ethyl acetate, 327.65 K): 0.0065 | solubility (mole fraction) (in ethyl acetate, 328.95 K): 0.00673 | solubility (mole fraction) (in isopropanol, 293.15 K): 0.000835 | solubility (mole fraction) (in isopropanol, 296.65 K): 0.000975 | solubility (mole fraction) (in isopropanol, 300.65 K): 0.00111 | solubility (mole fraction) (in isopropanol, 303.15 K): 0.00123 | solubility (mole fraction) (in isopropanol, 304.65 K): 0.00134 | solubility (mole fraction) (in isopropanol, 306.65 K): 0.00145 | solubility (mole fraction) (in isopropanol, 308.65 K): 0.00157 | solubility (mole fraction) (in isopropanol, 311.15 K): 0.00167 | solubility (mole fraction) (in isopropanol, 314.65 K): 0.00178 | solubility (mole fraction) (in isopropanol, 317.15 K): 0.00192 | solubility (mole fraction) (in isopropanol, 319.15 K): 0.00203 | solubility (mole fraction) (in isopropanol, 321.15 K): 0.00216 | solubility (mole fraction) (in isopropanol, 324.65 K): 0.0023 | solubility (mole fraction) (in isopropanol, 326.15 K): 0.00241 | solubility (mole fraction) (in isopropanol, 328.15 K): 0.00253 | solubility (mole fraction) (in isopropanol, 330.15 K): 0.00267 | solubility (mole fraction) (in isopropanol, 332.15 K): 0.00282 | solubility (mole fraction) (in methanol, 291.15 K): 0.000187 | solubility (mole fraction) (in methanol, 298.15 K): 0.000257 | solubility (mole fraction) (in methanol, 300.15 K): 0.000325 | solubility (mole fraction) (in methanol, 308.15 K): 0.000401 | solubility (mole fraction) (in methanol, 312.65 K): 0.000469 | solubility (mole fraction) (in methanol, 315.15 K): 0.00051 | solubility (mole fraction) (in methanol, 317.65 K): 0.000556 | solubility (mole fraction) (in methanol, 319.65 K): 0.0006 | solubility (mole fraction) (in methanol, 322.15 K): 0.000643 | solubility (mole fraction) (in methanol, 323.65 K): 0.000694 | solubility (mole fraction) (in methanol, 325.65 K): 0.000743 | solubility (mole fraction) (in methanol, 327.15 K): 0.000795 | solubility (mole fraction) (in methanol, 328.15 K): 0.000847 | solubility (mole fraction) (in methanol, 329.15 K): 0.00091 | solubility (mole fraction) (in methanol, 331.65 K): 0.000994 | solubility (mole fraction) (in n-propyl acetate, 296.15 K): 0.0021 | solubility (mole fraction) (in n-propyl acetate, 300.15 K): 0.00263 | solubility (mole fraction) (in n-propyl acetate, 306.65 K): 0.00313 | solubility (mole fraction) (in n-propyl acetate, 307.15 K): 0.00321 | solubility (mole fraction) (in n-propyl acetate, 310.15 K): 0.00356 | solubility (mole fraction) (in n-propyl acetate, 314.65 K): 0.00402 | solubility (mole fraction) (in n-propyl acetate, 317.65 K): 0.00442 | solubility (mole fraction) (in n-propyl acetate, 319.65 K): 0.0047 | solubility (mole fraction) (in n-propyl acetate, 322.15 K): 0.00495 | solubility (mole fraction) (in n-propyl acetate, 323.65 K): 0.0053 | solubility (mole fraction) (in n-propyl acetate, 325.15 K): 0.00543 | solubility (mole fraction) (in n-propyl acetate, 327.15 K): 0.00575 | solubility (mole fraction) (in n-propyl acetate, 328.65 K): 0.00616 | solubility (mole fraction) (in n-propyl acetate, 329.15 K): 0.00612
